The results in this text go back to patent US8691864B2, “Agents useful for reducing amyloid precursor protein and treating dementia and methods of use thereof” (priority 2000, dated 2014).

In one series the test system is SH-SY-5Y Cells. The series can be described thus: MTS toxicity assay in SHSY5Y cells. It is filed as cell-based, human.
The subject of the next series is secreted APP. The series can be described thus: ELISA for secreted APP in SHSY5Y cells. It is filed as cell-based, human. As to conditions: 16 hours.

As for `CC(Br)C(=O)N(Cc1ccccc1)c1ccc(O)cc1` (stereo not drawn) [MES 9306], the “APP Toxicity SH-SY-5Y Cells (MTS assay)” value is given as 102.3 % vehicle control in the series with SH-SY-5Y Cells (Dose 2 uM), 101.45 % vehicle control in the series on SH-SY-5Y Cells (Dose 6 uM) and 106 % vehicle control with SH-SY-5Y Cells (Dose 20 uM). Further, the results for the “APP Secretion by SH-SY-5Y Cells” value in the series on secreted APP (Dose 2 uM), in the series with secreted APP (Dose 6 uM) and with secreted APP (Dose 20 uM) were 110.75 % vehicle control, 114.55 % vehicle control and 124.8 % vehicle control, respectively.
Turning to `COC(=O)CC1(C)C(=O)N(C)c2ccc(OC)cc21` (stereo not drawn) [MES 9309], the “APP Toxicity SH-SY-5Y Cells (MTS assay)” value with SH-SY-5Y Cells (Dose 2 uM) is listed as 100.85 % vehicle control; in the series on SH-SY-5Y Cells (Dose 6 uM) it was 98.6 % vehicle control; with SH-SY-5Y Cells (Dose 20 uM), 101.1 % vehicle control. Also, the “APP Secretion by SH-SY-5Y Cells” value came out at 100 % vehicle control in the series with secreted APP (Dose 2 uM), 106.4 % vehicle control in the series with secreted APP (Dose 6 uM) and 100.9 % vehicle control in the series with secreted APP (Dose 20 uM).
As to `COc1ccc2c(c1)[C@@](C)(CCN(C)C)C(=O)N2C` [MES 9310], the “APP Toxicity SH-SY-5Y Cells (MTS assay)” value stood at 101.85 % vehicle control with SH-SY-5Y Cells (Dose 2 uM), 99.9 % vehicle control in the series with SH-SY-5Y Cells (Dose 6 uM) and 97.7 % vehicle control in the series with SH-SY-5Y Cells (Dose 20 uM). In addition, the “APP Secretion by SH-SY-5Y Cells” value in the series on secreted APP (Dose 2 uM) was determined as 104.8 % vehicle control; in the series on secreted APP (Dose 6 uM) it was 97.85 % vehicle control; with secreted APP (Dose 20 uM) it was 98.95 % vehicle control.
Regarding `CN(C)CC[C@]1(C)C(=O)N(C)c2ccc(O)cc21` [MES 9311], the “APP Toxicity SH-SY-5Y Cells (MTS assay)” value amounted to 101.1 % vehicle control in the series with SH-SY-5Y Cells (Dose 2 uM), 101.25 % vehicle control with SH-SY-5Y Cells (Dose 6 uM) and 99.55 % vehicle control in the series on SH-SY-5Y Cells (Dose 20 uM). Besides, the figures for the “APP Secretion by SH-SY-5Y Cells” value in the series on secreted APP (Dose 2 uM), with secreted APP (Dose 6 uM) and in the series on secreted APP (Dose 20 uM) were 102.45 % vehicle control, 103.05 % vehicle control and 102.7 % vehicle control, respectively.
In the case of `CN1C(=O)C(=O)c2ccccc21` [MES 9312], the “APP Toxicity SH-SY-5Y Cells (MTS assay)” value came out at 99.95 % vehicle control with SH-SY-5Y Cells (Dose 2 uM), 103.85 % vehicle control in the series with SH-SY-5Y Cells (Dose 6 uM) and 106.95 % vehicle control in the series on SH-SY-5Y Cells (Dose 20 uM). Further, the “APP Secretion by SH-SY-5Y Cells” value in the series on secreted APP (Dose 2 uM) amounted to 105.4 % vehicle control; in the series on secreted APP (Dose 6 uM) it was 101.7 % vehicle control; in the series with secreted APP (Dose 20 uM), 96.65 % vehicle control.
For `COc1ccc2c(c1)[C@](C)(CCN)C(=O)N2C.Cl` [MES 9314], the “APP Toxicity SH-SY-5Y Cells (MTS assay)” value is 100.15 % vehicle control with SH-SY-5Y Cells (Dose 2 uM), 100.85 % vehicle control with SH-SY-5Y Cells (Dose 6 uM) and 100.6 % vehicle control in the series on SH-SY-5Y Cells (Dose 20 uM). The “APP Secretion by SH-SY-5Y Cells” value with secreted APP (Dose 2 uM) is listed as 111.25 % vehicle control; with secreted APP (Dose 6 uM), 99.15 % vehicle control; with secreted APP (Dose 20 uM), 109.4 % vehicle control.
In the case of `COc1ccc2[nH]c3c(c2c1)CCN(C)C3` [MES 9316], the “APP Toxicity SH-SY-5Y Cells (MTS assay)” value in the series on SH-SY-5Y Cells (Dose 2 uM) is 99.15 % vehicle control; with SH-SY-5Y Cells (Dose 6 uM), 98.05 % vehicle control; in the series with SH-SY-5Y Cells (Dose 20 uM), 98.75 % vehicle control. In addition, the “APP Secretion by SH-SY-5Y Cells” value is given as 104.15 % vehicle control in the series on secreted APP (Dose 2 uM), 98.45 % vehicle control with secreted APP (Dose 6 uM) and 102 % vehicle control in the series with secreted APP (Dose 20 uM).
Regarding `COC(=O)NCCC1C(=O)N(Cc2ccccc2)c2ccc(OC)cc21` (stereo not drawn) [MES 9317], the results for the “APP Toxicity SH-SY-5Y Cells (MTS assay)” value in the series on SH-SY-5Y Cells (Dose 2 uM), in the series on SH-SY-5Y Cells (Dose 6 uM) and with SH-SY-5Y Cells (Dose 20 uM) were 97.27 % vehicle control, 97.23 % vehicle control and 93.5 % vehicle control, respectively. Moreover, the results for the “APP Secretion by SH-SY-5Y Cells” value in the series with secreted APP (Dose 2 uM), in the series on secreted APP (Dose 6 uM) and in the series with secreted APP (Dose 20 uM) were 99.87 % vehicle control, 112.3 % vehicle control and 122 % vehicle control, respectively.
Turning to `COc1ccc2c(c1)[C@]1(C)CCOC1N2C` (stereo partly drawn) [MES 9318], the “APP Toxicity SH-SY-5Y Cells (MTS assay)” value with SH-SY-5Y Cells (Dose 2 uM) is 96.2 % vehicle control; in the series with SH-SY-5Y Cells (Dose 6 uM), 96.45 % vehicle control; in the series with SH-SY-5Y Cells (Dose 20 uM) it was 96.05 % vehicle control. Also, the “APP Secretion by SH-SY-5Y Cells” value in the series on secreted APP (Dose 2 uM) amounted to 104.05 % vehicle control; in the series with secreted APP (Dose 6 uM), 103.4 % vehicle control; in the series on secreted APP (Dose 20 uM), 108.75 % vehicle control.
Turning to `COc1ccc2c(c1)C(O)(c1ccccc1)C(=O)N2C` (stereo not drawn) [MES 9319], the entries for the “APP Toxicity SH-SY-5Y Cells (MTS assay)” value in the series on SH-SY-5Y Cells (Dose 2 uM), in the series on SH-SY-5Y Cells (Dose 6 uM) and in the series with SH-SY-5Y Cells (Dose 20 uM) were 99.8 % vehicle control, 101.05 % vehicle control and 102.7 % vehicle control, respectively. Also, the “APP Secretion by SH-SY-5Y Cells” value in the series with secreted APP (Dose 2 uM) worked out at 108.95 % vehicle control; in the series with secreted APP (Dose 6 uM), 114.1 % vehicle control; in the series on secreted APP (Dose 20 uM), 112.8 % vehicle control.
Consider `COc1ccc2[nH]cc(CCN)c2c1.Cl` [MES 9321], for which the “APP Toxicity SH-SY-5Y Cells (MTS assay)” value in the series on SH-SY-5Y Cells (Dose 2 uM) stood at 99.9 % vehicle control; in the series on SH-SY-5Y Cells (Dose 6 uM) it was 101.15 % vehicle control; in the series on SH-SY-5Y Cells (Dose 20 uM) it was 99.45 % vehicle control. For the same compound, the “APP Secretion by SH-SY-5Y Cells” value in the series with secreted APP (Dose 2 uM) worked out at 97.95 % vehicle control; in the series on secreted APP (Dose 6 uM), 98.1 % vehicle control; with secreted APP (Dose 20 uM), 100.5 % vehicle control.
For `COc1ccc2c(c1)C(C)(c1ccccc1)C(=O)N2C` (stereo not drawn) [MES 9324], the entries for the “APP Toxicity SH-SY-5Y Cells (MTS assay)” value in the series with SH-SY-5Y Cells (Dose 2 uM), in the series with SH-SY-5Y Cells (Dose 6 uM) and in the series with SH-SY-5Y Cells (Dose 20 uM) were 102.15 % vehicle control, 100.4 % vehicle control and 98.65 % vehicle control, respectively. In addition, the “APP Secretion by SH-SY-5Y Cells” value with secreted APP (Dose 2 uM) is given as 110.3 % vehicle control; in the series on secreted APP (Dose 6 uM) it was 95.9 % vehicle control; in the series with secreted APP (Dose 20 uM), 99.95 % vehicle control.
As to `Br.CC1=C(c2ccc(O)cc2)CN2CCC[C@H]2C1.O` [MES 9330], the “APP Toxicity SH-SY-5Y Cells (MTS assay)” value with SH-SY-5Y Cells (Dose 2 uM) is on record as 99.05 % vehicle control; in the series on SH-SY-5Y Cells (Dose 6 uM), 98.45 % vehicle control; with SH-SY-5Y Cells (Dose 20 uM), 97.95 % vehicle control. In addition, the “APP Secretion by SH-SY-5Y Cells” value in the series with secreted APP (Dose 2 uM) is listed as 99.6 % vehicle control; in the series on secreted APP (Dose 6 uM), 101.5 % vehicle control; in the series with secreted APP (Dose 20 uM) it was 110.65 % vehicle control.
Turning to `Clc1ccc(C2CC3CCC2N3)cn1` (stereo not drawn) [MES 9331], the “APP Toxicity SH-SY-5Y Cells (MTS assay)” value in the series on SH-SY-5Y Cells (Dose 2 uM) came out at 100.45 % vehicle control; with SH-SY-5Y Cells (Dose 6 uM) it was 99.99 % vehicle control; in the series on SH-SY-5Y Cells (Dose 20 uM), 98.95 % vehicle control. Further, the “APP Secretion by SH-SY-5Y Cells” value was 95.45 % vehicle control with secreted APP (Dose 2 uM), 102.1 % vehicle control in the series on secreted APP (Dose 6 uM) and 106.7 % vehicle control with secreted APP (Dose 20 uM).
